Laboratory results as given in the supplement of paper PMC10307832.

How the values were obtained:
Assay in all cases: relative viability (nuclei count vs DMSO), 5 days (fraction); higher = more cells survive
Calu-6 = test system: Calu-6
Procedure, shortened: (§1)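 A single step with final 0.05% Triton X-100, 1% formaldehyde and 1 ug/ml Hoechst fixed the cells and stained nuclei 5 days after treatment. Lung cancer cell lines in 1536-well plates had been treated by pin tool the day after seeding with one drug alone or a fixed anchor-drug dose plus five library-drug doses (not always all listed) in √10 steps, and nuclei were counted on 4× images. Relative viability is the ratio of nuclei in treated wells to nuclei in vehicle wells, taken as the median of duplicate plates.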

NCI-H23 = test system: NCI-H23
Procedure, shortened: as §1

LCLC-97TM1 = test system: LCLC-97TM1
Procedure, shortened: as §1

NCI-H322M = test system: NCI-H322M
Procedure, shortened: as §1

NCI-H1299 = test system: NCI-H1299
Procedure, shortened: as §1

NCI-H1703 = test system: NCI-H1703
Procedure, shortened: as §1

NCI-H596 = test system: NCI-H596
Procedure, shortened: as §1

EBC-1 = test system: EBC-1
Procedure, shortened: as §1

IA-LM = test system: IA-LM
Procedure, shortened: as §1

NCI-H1355 = test system: NCI-H1355
Procedure, shortened: as §1

NCI-H1993 = test system: NCI-H1993
Procedure, shortened: as §1

A549 = test system: A549
Procedure, shortened: as §1

UMC-11 = test system: UMC-11
Procedure, shortened: as §1

With COc1cc2nccc(Oc3ccc(NC(=O)Nc4cc(C)on4)c(Cl)c3)c2cc1OC [Tivozanib] + CS(=O)(=O)CCNCc1ccc(-c2ccc3ncnc(Nc4ccc(OCc5cccc(F)c5)c(Cl)c4)c3c2)o1 [Lapatinib] (partner 2 µM) the relative viability (Calu-6; first compound 0.005 µM) was 1.01, the relative viability (Calu-6; first compound 0.01581 µM) was 1.08 and the relative viability (Calu-6; first compound 0.05 µM) was 1.07. For the same molecule, the relative viability (Calu-6; first compound 0.1581 µM) was 1.13, the relative viability (Calu-6; first compound 0.5 µM) was 1.14 and the relative viability (NCI-H23; first compound 0.005 µM) was 1.1. For the same molecule, the relative viability (NCI-H23; first compound 0.01581 µM) was 1.37, the relative viability (NCI-H23; first compound 0.05 µM) was 1.09 and the relative viability (NCI-H23; first compound 0.1581 µM) was 0.858. The relative viability (NCI-H23; first compound 0.5 µM) was 0.942, the relative viability (LCLC-97TM1; first compound 0.005 µM) was 0.948 and the relative viability (LCLC-97TM1; first compound 0.01581 µM) was 1.23. For the same molecule, the relative viability (LCLC-97TM1; first compound 0.1581 µM) was 0.807, the relative viability (LCLC-97TM1; first compound 0.5 µM) was 0.821 and the relative viability (NCI-H322M; first compound 0.005 µM) was 0.574. For the same molecule, the relative viability (NCI-H322M; first compound 0.01581 µM) was 0.649, the relative viability (NCI-H322M; first compound 0.05 µM) was 0.615 and the relative viability (NCI-H322M; first compound 0.1581 µM) was 0.525. For the same molecule, the relative viability (NCI-H322M; first compound 0.5 µM) was 0.65, the relative viability (NCI-H1299; first compound 0.005 µM) was 0.921 and the relative viability (NCI-H1299; first compound 0.01581 µM) was 1.03. It also gave a relative viability (NCI-H1299; first compound 0.05 µM) of 0.933, a relative viability (NCI-H1299; first compound 0.1581 µM) of 0.936 and a relative viability (NCI-H1299; first compound 0.5 µM) of 0.917. It also gave a relative viability (NCI-H1703; first compound 0.005 µM) of 0.44, a relative viability (NCI-H1703; first compound 0.01581 µM) of 0.255 and a relative viability (NCI-H1703; first compound 0.05 µM) of 0.271. It also gave a relative viability (NCI-H1703; first compound 0.1581 µM) of 0.305, a relative viability (NCI-H1703; first compound 0.5 µM) of 0.259 and a relative viability (NCI-H596; first compound 0.005 µM) of 0.998. It also gave a relative viability (NCI-H596; first compound 0.01581 µM) of 1.04, a relative viability (NCI-H596; first compound 0.05 µM) of 1.04 and a relative viability (NCI-H596; first compound 0.1581 µM) of 1.04. The relative viability (NCI-H596; first compound 0.5 µM) was 1.08, the relative viability (EBC-1; first compound 0.005 µM) was 0.231 and the relative viability (EBC-1; first compound 0.01581 µM) was 0.216. The relative viability (EBC-1; first compound 0.05 µM) was 0.172, the relative viability (EBC-1; first compound 0.1581 µM) was 0.209 and the relative viability (EBC-1; first compound 0.5 µM) was 0.204. The relative viability (IA-LM; first compound 0.01581 µM) was 0.564, the relative viability (IA-LM; first compound 0.05 µM) was 0.771 and the relative viability (IA-LM; first compound 0.1581 µM) was 0.582. It also gave a relative viability (IA-LM; first compound 0.5 µM) of 0.56, a relative viability (NCI-H1355; first compound 0.005 µM) of 0.894 and a relative viability (NCI-H1355; first compound 0.01581 µM) of 0.941. For the same molecule, the relative viability (NCI-H1355; first compound 0.05 µM) was 1, the relative viability (NCI-H1355; first compound 0.5 µM) was 0.92 and the relative viability (NCI-H1993; first compound 0.005 µM) was 0.774. It also gave a relative viability (NCI-H1993; first compound 0.01581 µM) of 0.775, a relative viability (NCI-H1993; first compound 0.05 µM) of 0.758 and a relative viability (NCI-H1993; first compound 0.1581 µM) of 0.713. For the same molecule, the relative viability (NCI-H1993; first compound 0.5 µM) was 0.739, the relative viability (A549; first compound 0.005 µM) was 1.09 and the relative viability (A549; first compound 0.01581 µM) was 0.987. It also gave a relative viability (A549; first compound 0.05 µM) of 0.944, a relative viability (A549; first compound 0.1581 µM) of 1.03 and a relative viability (A549; first compound 0.5 µM) of 0.913. The relative viability (UMC-11; first compound 0.005 µM) was 0.901, the relative viability (UMC-11; first compound 0.01581 µM) was 0.983 and the relative viability (UMC-11; first compound 0.05 µM) was 1.01. The relative viability (UMC-11; first compound 0.5 µM) was 0.839.

Work on COc1cc2nccc(Oc3ccc(NC(=O)Nc4cc(C)on4)c(Cl)c3)c2cc1OC [Tivozanib] + C[C@]1(O)C[C@@H](c2nc(-c3ccc4ccc(-c5ccccc5)nc4c3)c3c(N)nccn32)C1 [Linsitinib] (partner 1 µM) yielded a relative viability (Calu-6; first compound 0.005 µM) of 0.89, a relative viability (Calu-6; first compound 0.01581 µM) of 0.941 and a relative viability (Calu-6; first compound 0.05 µM) of 0.894. It also gave a relative viability (Calu-6; first compound 0.1581 µM) of 0.915, a relative viability (Calu-6; first compound 0.5 µM) of 0.83 and a relative viability (NCI-H23; first compound 0.005 µM) of 0.521. For the same molecule, the relative viability (NCI-H23; first compound 0.01581 µM) was 0.534, the relative viability (NCI-H23; first compound 0.05 µM) was 0.64 and the relative viability (NCI-H23; first compound 0.1581 µM) was 0.317. It also gave a relative viability (NCI-H23; first compound 0.5 µM) of 0.534, a relative viability (LCLC-97TM1; first compound 0.005 µM) of 0.154 and a relative viability (LCLC-97TM1; first compound 0.01581 µM) of 0.179. The relative viability (LCLC-97TM1; first compound 0.1581 µM) was 0.187, the relative viability (LCLC-97TM1; first compound 0.5 µM) was 0.178 and the relative viability (NCI-H322M; first compound 0.005 µM) was 0.942. It also gave a relative viability (NCI-H322M; first compound 0.01581 µM) of 0.961, a relative viability (NCI-H322M; first compound 0.05 µM) of 0.989 and a relative viability (NCI-H322M; first compound 0.1581 µM) of 0.92. It also gave a relative viability (NCI-H322M; first compound 0.5 µM) of 0.825, a relative viability (NCI-H1299; first compound 0.005 µM) of 0.956 and a relative viability (NCI-H1299; first compound 0.01581 µM) of 0.981. It also gave a relative viability (NCI-H1299; first compound 0.05 µM) of 0.981, a relative viability (NCI-H1299; first compound 0.1581 µM) of 0.998 and a relative viability (NCI-H1299; first compound 0.5 µM) of 0.841. The relative viability (NCI-H1703; first compound 0.005 µM) was 0.402, the relative viability (NCI-H1703; first compound 0.01581 µM) was 0.254 and the relative viability (NCI-H1703; first compound 0.05 µM) was 0.167. For the same molecule, the relative viability (NCI-H1703; first compound 0.1581 µM) was 0.158, the relative viability (NCI-H1703; first compound 0.5 µM) was 0.283 and the relative viability (NCI-H596; first compound 0.005 µM) was 1.1. For the same molecule, the relative viability (NCI-H596; first compound 0.01581 µM) was 1.03, the relative viability (NCI-H596; first compound 0.05 µM) was 0.953 and the relative viability (NCI-H596; first compound 0.1581 µM) was 0.952. It also gave a relative viability (NCI-H596; first compound 0.5 µM) of 1.01, a relative viability (EBC-1; first compound 0.005 µM) of 0.86 and a relative viability (EBC-1; first compound 0.01581 µM) of 0.898. The relative viability (EBC-1; first compound 0.05 µM) was 0.909, the relative viability (EBC-1; first compound 0.1581 µM) was 0.762 and the relative viability (EBC-1; first compound 0.5 µM) was 0.887. It also gave a relative viability (IA-LM; first compound 0.005 µM) of 0.526, a relative viability (IA-LM; first compound 0.01581 µM) of 0.508 and a relative viability (IA-LM; first compound 0.05 µM) of 0.573. It also gave a relative viability (IA-LM; first compound 0.1581 µM) of 0.467, a relative viability (IA-LM; first compound 0.5 µM) of 0.511 and a relative viability (NCI-H1355; first compound 0.005 µM) of 0.776. The relative viability (NCI-H1355; first compound 0.01581 µM) was 0.809, the relative viability (NCI-H1355; first compound 0.05 µM) was 0.895 and the relative viability (NCI-H1355; first compound 0.5 µM) was 0.844. It also gave a relative viability (NCI-H1993; first compound 0.005 µM) of 0.698, a relative viability (NCI-H1993; first compound 0.01581 µM) of 0.777 and a relative viability (NCI-H1993; first compound 0.05 µM) of 0.79. It also gave a relative viability (NCI-H1993; first compound 0.1581 µM) of 0.638, a relative viability (NCI-H1993; first compound 0.5 µM) of 0.758 and a relative viability (A549; first compound 0.005 µM) of 0.52. It also gave a relative viability (A549; first compound 0.01581 µM) of 0.606, a relative viability (A549; first compound 0.05 µM) of 0.625 and a relative viability (A549; first compound 0.1581 µM) of 0.635. For the same molecule, the relative viability (A549; first compound 0.5 µM) was 0.656, the relative viability (UMC-11; first compound 0.005 µM) was 1.08 and the relative viability (UMC-11; first compound 0.01581 µM) was 1.01. It also gave a relative viability (UMC-11; first compound 0.05 µM) of 1.06 and a relative viability (UMC-11; first compound 0.5 µM) of 0.997.
